Measurements as given in US9645128B2, “Substituted imidazo[1,2-A]pyrazines for measuring a transcription activity” (JNC CORPORATION, priority 2009, dated 2017).

Target: T1, 19 kDa protein of Oplophorus luciferase (Oplophorus gracilirostris, UniProt Q9GV45)
T1 construct: made in house
Assay: Substrate specificity, luminescence activity and emission spectra of the 19 kDa protein of Oplophorus luciferase
Format: biochemical, Oplophorus gracilorostris
Conditions: Oplophorus luciferase, 22 to 25° C.

T1 sequence (Q9GV45 28-196): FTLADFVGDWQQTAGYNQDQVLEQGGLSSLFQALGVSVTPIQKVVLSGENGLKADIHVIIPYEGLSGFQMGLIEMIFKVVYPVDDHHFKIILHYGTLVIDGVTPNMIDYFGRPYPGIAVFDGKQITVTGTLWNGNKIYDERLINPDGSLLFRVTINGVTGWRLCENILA

**Q.** For `CC(c1ccccc1)c1nc2c(Cc3ccccc3)[nH]c(-c3ccc(O)cc3)cn-2c1=O` (stereo not shown) [αmeh-CTZ, αmeh-coelenterazine], which “Maximum emission wavelength λmax (nm)” value is on record?
**A.** 457.0 nm

**Q.** Which “Maximum emission wavelength λmax (nm)” value does the source give for “i-coelenterazine [i-CTZ, reference compound]” here?
**A.** 450.0 nm

**Q.** For `Oc1ccc(-c2cn3c(O)c(Cc4ccccc4)nc3c(Cc3ccccc3)n2)cc1` [h-CTZ, h-coelenterazine, reference compound], which “Maximum emission wavelength λmax (nm)” value is on record?
**A.** 456.5 nm

**Q.** For “coelenterazine [CTZ, reference compound]”, which “Maximum emission wavelength λmax (nm)” value is on record?
**A.** 457.0 nm

Same assay, conditions: Oplophorus luciferase, emission integrated for 10 seconds; coelenterazine = 100.0

**Q.** For `CC(c1ccccc1)c1nc2c(Cc3ccccc3)[nH]c(-c3ccc(O)cc3)cn-2c1=O` (stereo not shown) [αmeh-CTZ, αmeh-coelenterazine], which “Luminescence capacity 10 secs. (%)” value is on record?
**A.** 19.0%

**Q.** Which “Luminescence capacity 10 secs. (%)” value does the source give for “i-coelenterazine [i-CTZ, reference compound]” here?
**A.** 53.8%

**Q.** With `Oc1ccc(-c2cn3c(O)c(Cc4ccccc4)nc3c(Cc3ccccc3)n2)cc1` [h-CTZ, h-coelenterazine, reference compound] as the compound, how does the “Luminescence capacity 10 secs. (%)” value read?
**A.** 110.2%

**Q.** For “coelenterazine [CTZ, reference compound]”, which “Luminescence capacity 10 secs. (%)” value is on record?
**A.** 100.0%

Same assay, conditions: Oplophorus luciferase; coelenterazine = 100.0

**Q.** For `CC(c1ccccc1)c1nc2c(Cc3ccccc3)[nH]c(-c3ccc(O)cc3)cn-2c1=O` (stereo not shown) [αmeh-CTZ, αmeh-coelenterazine], which “Luminescence activity Imax (%)” value is on record?
**A.** 15.6%

**Q.** With “i-coelenterazine [i-CTZ, reference compound]” as the compound, how does the “Luminescence activity Imax (%)” value read?
**A.** 32.3%

**Q.** For `Oc1ccc(-c2cn3c(O)c(Cc4ccccc4)nc3c(Cc3ccccc3)n2)cc1` [h-CTZ, h-coelenterazine, reference compound], which “Luminescence activity Imax (%)” value is on record?
**A.** 68.4%

**Q.** For “coelenterazine [CTZ, reference compound]”, which “Luminescence activity Imax (%)” value is on record?
**A.** 100.0%

Same assay, conditions: TABLE 2

**Q.** Which “Quality as luminescence substrate for Oplophorus luciferase” value does the source give for `CC(c1ccccc1)c1nc2c(Cc3ccccc3)[nH]c(-c3ccc(O)cc3)cn-2c1=O` (stereo not shown) [αmeh-CTZ, αmeh-coelenterazine] here?
**A.** relatively good luminescence substrates

Target: T2, Renilla luciferase (Renilla reniformis, UniProt P27652)
T2 construct: made in house
T2 sequence (P27652 1-311): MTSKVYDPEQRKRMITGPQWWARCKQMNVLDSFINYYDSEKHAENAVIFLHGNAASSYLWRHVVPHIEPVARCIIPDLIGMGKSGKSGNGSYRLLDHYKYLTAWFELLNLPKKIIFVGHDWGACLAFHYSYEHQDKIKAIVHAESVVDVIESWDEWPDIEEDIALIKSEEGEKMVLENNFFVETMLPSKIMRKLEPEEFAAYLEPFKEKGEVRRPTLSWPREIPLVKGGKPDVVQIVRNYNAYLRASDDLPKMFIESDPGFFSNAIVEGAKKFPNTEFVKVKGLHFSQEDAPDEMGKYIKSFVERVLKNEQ
Assay: Substrate specificity, luminescence activity and emission spectra of Renilla luciferase
Format: biochemical
Conditions: Renilla luciferase, 22 to 25° C.
Description: Res. Commun. (1997) 233: 349-353, which was provided for use.

**Q.** Which “Maximum emission wavelength λmax (nm)” value does the source give for “i-coelenterazine [i-CTZ, reference compound]” here?
**A.** 473.0 nm

**Q.** For `Oc1ccc(-c2cn3c(O)c(Cc4ccccc4)nc3c(Cc3ccccc3)n2)cc1` [h-CTZ, h-coelenterazine, reference compound], which “Maximum emission wavelength λmax (nm)” value is on record?
**A.** 472.5 nm

**Q.** For “coelenterazine [CTZ, reference compound]”, which “Maximum emission wavelength λmax (nm)” value is on record?
**A.** 472.5 nm

Same assay, conditions: Renilla luciferase; coelenterazine = 100.0

**Q.** What does the source list for `CC(c1ccccc1)c1nc2c(Cc3ccccc3)[nH]c(-c3ccc(O)cc3)cn-2c1=O` (stereo not shown) [αmeh-CTZ, αmeh-coelenterazine]?
**A.** Luminescence activity Imax (%): 0.0%; Luminescence capacity 10 secs. (%): 0.0%

**Q.** With “i-coelenterazine [i-CTZ, reference compound]” as the compound, how does the “Luminescence activity Imax (%)” value read?
**A.** 0.2%

**Q.** And the “Luminescence capacity 10 secs. (%)” value?
**A.** 0.3%

**Q.** What does the source list for `Oc1ccc(-c2cn3c(O)c(Cc4ccccc4)nc3c(Cc3ccccc3)n2)cc1` [h-CTZ, h-coelenterazine, reference compound]?
**A.** Luminescence activity Imax (%): 78.6%; Luminescence capacity 10 secs. (%): 90.3%

**Q.** Which results are given for “coelenterazine [CTZ, reference compound]”?
**A.** Luminescence activity Imax (%): 100.0%; Luminescence capacity 10 secs. (%): 100.0%

Tested on: not given
Assay: not given
Conditions: not given

**Q.** For `CC(c1ccccc1)c1nc2c(Cc3ccccc3)[nH]c(-c3ccc(O)cc3)cn-2c1=O` (stereo not shown) [αmeh-CTZ, αmeh-coelenterazine], which melting point is on record?
**A.** 143 to 145 °C (dec.)

Target: T3, recombinant apoaequorin (Aequorea victoria, UniProt P07164)
T3 sequence (P07164 other isoform, or with tags, fused parts or gaps with the stated changes): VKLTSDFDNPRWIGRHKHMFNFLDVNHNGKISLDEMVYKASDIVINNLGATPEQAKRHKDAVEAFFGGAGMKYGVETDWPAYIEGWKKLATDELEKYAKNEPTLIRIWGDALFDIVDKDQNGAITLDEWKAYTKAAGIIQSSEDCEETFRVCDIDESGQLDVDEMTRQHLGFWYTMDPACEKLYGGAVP
Assay: Luminescence patterns and half decay time of semi-synthetic aequorins
Format: biochemical
Set-up: purchased Chisso Corporation
Conditions: semi-synthetic aequorin; time to reach half of the maximum luminescence intensity
Procedure: The dilution was dispensed into a 96-well microplate (Nunc #236108) in 5 μl/well. […] The luminescence patterns for 60 seconds were measured to determine the half decay time of luminescence (time period to reach the half of the maximum luminescence intensity).

**Q.** For `CC(c1ccccc1)c1nc2c(Cc3ccccc3)[nH]c(-c3ccc(O)cc3)cn-2c1=O` (stereo not shown) [αmeh-CTZ, αmeh-coelenterazine], which “Half decay time sec.” value is on record?
**A.** 0.35 s

**Q.** With “i-coelenterazine [i-CTZ, reference compound]” as the compound, how does the “Half decay time sec.” value read?
**A.** 11.42 s

**Q.** For `Oc1ccc(-c2cn3c(O)c(Cc4ccccc4)nc3c(Cc3ccccc3)n2)cc1` [h-CTZ, h-coelenterazine, reference compound], which “Half decay time sec.” value is on record?
**A.** 0.69 s

**Q.** For “coelenterazine [CTZ, reference compound]”, which “Half decay time sec.” value is on record?
**A.** 0.81 s

Target: T3, recombinant apoaequorin
Assay: Calcium standard curve with semi-synthetic aequorins
Format: biochemical
Set-up: purchased Chisso Corporation
Conditions: Imax versus 10^-3 M to 10^-8 M calcium
Procedure: The dilution series was prepared by the serial process above to prepare standard calcium solution of 10^−3 M to 10^−8 M.
The semi-synthetic aequorin obtained was concentrated using Amicon Ultra-4 (manufactured by Millipore, molecular weight cut off, 10.000).
This semi-synthetic aequorin solution (2.5 mg/ml) was diluted with 20 mM Tris-HCl (pH 7.6) containing 0.1% BSA (manufactured by Sigma), 0.01 mM EDTA and 150 mM NaCl.
The calcium standard solution prepared as described above was dispensed into a 96-well microplate (Nunc #236108) in 50 μl/well, and the semi-synthetic aequorin solution diluted was injected in […]. The luminescence intensity was measured for 60 seconds using a luminescence plate reader Centro LB960 (manufactured by Berthold) and expressed in terms of the maximum luminescence intensity (Imax). The luminescence intensity was measured for each semi-synthetic aequorin in the same fashion. Based on the maximum luminescence intensity (Imax) obtained, the calcium standard curve for each semi-synthetic aequorin was prepared.

**Q.** For `CC(c1ccccc1)c1nc2c(Cc3ccccc3)[nH]c(-c3ccc(O)cc3)cn-2c1=O` (stereo not shown) [αmeh-CTZ, αmeh-coelenterazine], which “Calcium standard curve with semi-synthetic aequorin (FIG. 4)” value is on record?
**A.** calcium standard curves can be prepared

Target: T3, recombinant apoaequorin
Assay: Emission spectra of semi-synthetic aequorins by addition of calcium ions
Conditions: semi-synthetic aequorin, 22 to 25° C.
Procedure: In a quartz cell with an optical path length of 10 mm, 1 ml of 50 mM Tris-HCl (pH 7.6) containing 1 mM EDTA and 100 μl (100 μg protein) of a solution of the regenerated semi-synthetic aequorin were charged and they were mixed. Subsequently, 100 μl of 50 mM Tris-HCl (pH 7.6) containing 0.1 ml of 10 mM calcium chloride solution was added to the mixture to trigger the luminescence reaction. The spectra were measured on a spectrofluorimeter (FP-6500, manufactured by JASCO Corporation) with the excitation source turned off. The measurement conditions used were as follows: band width, 20 nm; response, 0.5 second and scan speed, 2000 nm/min at 22 to 25° C.

**Q.** For `CC(c1ccccc1)c1nc2c(Cc3ccccc3)[nH]c(-c3ccc(O)cc3)cn-2c1=O` (stereo not shown) [αmeh-CTZ, αmeh-coelenterazine], which “Maximum emission wavelength λmax (nm)” value is on record?
**A.** 467.5 nm

**Q.** With “i-coelenterazine [i-CTZ, reference compound]” as the compound, how does the “Maximum emission wavelength λmax (nm)” value read?
**A.** 472.0 nm

**Q.** For `Oc1ccc(-c2cn3c(O)c(Cc4ccccc4)nc3c(Cc3ccccc3)n2)cc1` [h-CTZ, h-coelenterazine, reference compound], which “Maximum emission wavelength λmax (nm)” value is on record?
**A.** 465.5 nm

**Q.** Which “Maximum emission wavelength λmax (nm)” value does the source give for “coelenterazine [CTZ, reference compound]” here?
**A.** 465.5 nm

Tested on: Gaussia luciferase
Assay: Substrate specificity, luminescence activity and emission spectra of Gaussia luciferase
Conditions: Gaussia luciferase; coelenterazine = 100.0
Procedure: The luminescence activity was measured for 10 seconds using a luminometer Luminescencer-PSN AB2200 (manufactured by Atto Co., Ltd.). The luminescence activity was measured 3 times and expressed as the maximum intensity (Imax) of luminescence.

**Q.** For `CC(c1ccccc1)c1nc2c(Cc3ccccc3)[nH]c(-c3ccc(O)cc3)cn-2c1=O` (stereo not shown) [αmeh-CTZ, αmeh-coelenterazine], which “Luminescence activity Imax (%)” value is on record?
**A.** >0.01%

**Q.** What about the “Luminescence capacity 10 secs. (%)” value of the same compound?
**A.** >0.01%

**Q.** With “i-coelenterazine [i-CTZ, reference compound]” as the compound, how does the “Luminescence activity Imax (%)” value read?
**A.** 0.9%

**Q.** What about the “Luminescence capacity 10 secs. (%)” value of the same compound?
**A.** 1.3%

**Q.** For `Oc1ccc(-c2cn3c(O)c(Cc4ccccc4)nc3c(Cc3ccccc3)n2)cc1` [h-CTZ, h-coelenterazine, reference compound], which “Luminescence activity Imax (%)” value is on record?
**A.** 5.8%

**Q.** What about the “Luminescence capacity 10 secs. (%)” value of the same compound?
**A.** 7.2%

**Q.** With “coelenterazine [CTZ, reference compound]” as the compound, how does the “Luminescence activity Imax (%)” value read?
**A.** 100.0%

**Q.** What about the “Luminescence capacity 10 secs. (%)” value of the same compound?
**A.** 100.0%

Target: T3, recombinant apoaequorin
Assay: Production of semi-synthetic aequorins and measurement of luminescence activity (Imax, luminescence capacity)
Conditions: regeneration 0.5 to 18 hours at 4° C.
Procedure: In order to confirm the regeneration time and regeneration efficiency from apoaequorin to the semi-synthetic aequorin, the luminescence activity was assayed at the respective points of the regeneration process (at the respective points of 0.5, 1, 1.5, 2, 3 and 18 hours from the start of regeneration).
Specifically, the luminescence activity described above was measured as follows. The luminescence reaction was started by adding 100 μl of 50 mM Tris-HCl (pH 7.6) containing 50 mM calcium chloride solution to 2 μl of a solution of the semi-synthetic aequorin at each regeneration process. The luminescence activity was measured for 10 seconds with a luminometer Luminescencer-PSN AB2200 (manufactured by Atto Co., Ltd.). The measured values were represented as the maximum intensity (Imax) of luminescence. The emission for 60 seconds was integrated, which was made a luminescence capacity.

**Q.** For `CC(c1ccccc1)c1nc2c(Cc3ccccc3)[nH]c(-c3ccc(O)cc3)cn-2c1=O` (stereo not shown) [αmeh-CTZ, αmeh-coelenterazine], which “Ability to act as luminescence substrate for semi-synthetic aequorins (FIG. 1)” value is on record?
**A.** can be luminescence substrates for semi-synthetic aequorins

Same assay, conditions: semi-synthetic aequorin, Ca2+-triggered, maximum intensity; coelenterazine = 100.0

**Q.** Which “Luminescence activity Imax (%)” value does the source give for “i-coelenterazine [i-CTZ, reference compound]” here?
**A.** 5.0%

**Q.** Which “Luminescence activity Imax (%)” value does the source give for `Oc1ccc(-c2cn3c(O)c(Cc4ccccc4)nc3c(Cc3ccccc3)n2)cc1` [h-CTZ, h-coelenterazine, reference compound] here?
**A.** 87.9%

**Q.** With “coelenterazine [CTZ, reference compound]” as the compound, how does the “Luminescence activity Imax (%)” value read?
**A.** 100.0%

Same assay, conditions: semi-synthetic aequorin, emission integrated for 60 seconds; coelenterazine = 100.0

**Q.** Which “Luminescence capacity 60 sec (%)” value does the source give for “i-coelenterazine [i-CTZ, reference compound]” here?
**A.** 65.3%

**Q.** For `Oc1ccc(-c2cn3c(O)c(Cc4ccccc4)nc3c(Cc3ccccc3)n2)cc1` [h-CTZ, h-coelenterazine, reference compound], which “Luminescence capacity 60 sec (%)” value is on record?
**A.** 70.1%

**Q.** Which “Luminescence capacity 60 sec (%)” value does the source give for “coelenterazine [CTZ, reference compound]” here?
**A.** 100.0%
